Data on 2 molecules can be found in US20250034116A1, “1,4-DIHETEROCYCLIC SUBSTITUTED AROMATIC RING OR AROMATIC HETEROCYCLIC COMPOUND AND USE THEREOF” (BeBetter Med Inc., priority 2022, published 2025).

Structures are written as SMILES.

In the first data set the target is recombinant CYP4A11 (rCYP4A11) (Homo sapiens (Human), UniProt Q02928). In words: Inhibition of 20-HETE production by recombinant CYP4A11. It counts as biochemical. To be noted: read-out: rCYP4A11 (% inh @ 100 nM). As to the method: (§1) Experimental principle: The inhibitory activity of 20-HETE production is evaluated by testing the inhibitory effects of the compound on human liver microsomes (HLM), rat liver microsomes (RLM), mouse liver microsomes (MLM), or […] CYP4 subtype enzymes (CYP4F2). This assay employs HLM, RLM, or MLM along with recombinant CYP4F2 (rCYP4F2) and recombinant CYP4A11 (rCYP4A11), which are […] CYP4 subtype enzymes, to detect the effects of the test compound at different concentrations on the metabolic rate of enzyme-specific substrates, to determine the inhibitory effects of the test compound on CYP enzymes in HLM, RLM, or MLM.
Chain of recombinant CYP4A11 (rCYP4A11) (Q02928 5-519): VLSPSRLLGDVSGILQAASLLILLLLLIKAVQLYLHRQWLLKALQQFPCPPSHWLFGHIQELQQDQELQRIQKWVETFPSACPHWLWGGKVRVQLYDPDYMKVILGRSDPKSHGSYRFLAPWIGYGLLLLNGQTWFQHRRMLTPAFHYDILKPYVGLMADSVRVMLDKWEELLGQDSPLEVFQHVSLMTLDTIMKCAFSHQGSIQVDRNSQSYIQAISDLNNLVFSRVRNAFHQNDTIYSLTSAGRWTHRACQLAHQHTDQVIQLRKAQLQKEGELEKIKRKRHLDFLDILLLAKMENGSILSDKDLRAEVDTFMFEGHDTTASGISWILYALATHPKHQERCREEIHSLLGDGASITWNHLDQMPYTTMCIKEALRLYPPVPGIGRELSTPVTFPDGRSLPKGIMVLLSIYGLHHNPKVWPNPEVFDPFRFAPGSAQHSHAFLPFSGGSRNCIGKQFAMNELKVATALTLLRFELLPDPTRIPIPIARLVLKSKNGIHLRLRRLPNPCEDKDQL
(§2) Experimental methods: Dissolve the test compound in DMSO, and subsequently dilute it with an acetonitrile and DMSO mixture (3:1). Add 2 μl of varying concentrations of the test compound and 100 μl of potassium phosphate buffer containing either liver microsomes or recombinant enzymes to a 96-well plate. After mixing well, transfer 30 μl to another well (in duplicate), add 15 μl of 400 μM substrate solution, and mix well again. Preheat at 37° C. for 10 minutes, and then add 15 μl of 6 mM NADPH and incubate at 37° C. for 25 minutes. After 25 minutes, add 160 μl of acetonitrile solution (containing 0.1 μg/ml internal standard) to stop the reaction. Mix well, centrifuge at 3500 g for 15 minutes, and then analyze the supernatant using LC-MS/MS.
(§3) Plot the compound concentration on the x-axis and the inhibition rate on the y-axis to draw the curve. Use GraphPad Prism 5 software to fit the curve and calculate the IC50. The formula is Y=Bottom+(Top−Bottom)/(1+10^((Log IC50−X)×HillSlope)). X represents the logarithmic concentration of the inhibitor, and Y represents the relative enzyme activity at a given inhibitor concentration (relative to the condition without the inhibitor).
(§4) Calculate the inhibition percentages at concentrations of 1000 nM, 500 nM, or 100 nM as well as the half-maximal inhibitory concentration (IC50) of the test compound from the above experiment.
As to `O=C1CCCN1CC1CCN(c2ccc(-c3cn[nH]c3)cc2)CC1` [Compound 1, 1-((1-(4-(1H-pyrazol-4-yl)phenyl)piperidin-4-yl)methyl)pyrrolidin-2-one], the inhibition at 0.1 µM is 35.4%.

Consider `O=C1CCCCN1CC1CCN(c2ccc(-c3cn[nH]c3)c(F)c2F)CC1` [Compound 26, 1-((1-(2,3-difluoro-4-(1H-pyrazol-4-yl)phenyl)piperidin-4-yl)methyl)piperidin-2-one], for which the inhibition at 0.1 µM came out at 53.9%.

A further data set concerns CYP enzymes in rat liver microsomes (RLM). In words: Inhibition of 20-HETE production in rat liver microsomes (RLM). It counts as biochemical.
Conditions: not given
In a few lines: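 Test compounds were dissolved in DMSO, diluted in acetonitrile/DMSO (3:1), and 2 μl was mixed with 100 μl potassium phosphate buffer containing rat liver microsomes in a 96-well plate. Duplicate 30 μl aliquots received 15 μl of 400 μM substrate, were preheated at 37° C. for 10 minutes, then started with 15 μl of 6 mM NADPH for 25 minutes. LC-MS/MS measured 20-HETE formation.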
In general, IC50 refers to the concentration that inhibits the measured activity by half. `O=C1CCCN1CC1CCN(c2ccc(-c3cn[nH]c3)cc2)CC1` [Compound 1, 1-((1-(4-(1H-pyrazol-4-yl)phenyl)piperidin-4-yl)methyl)pyrrolidin-2-one] displayed an IC50 of 224 nM.

Consider `O=C1CCCCN1CC1CCN(c2ccc(-c3cn[nH]c3)c(F)c2F)CC1` [Compound 26, 1-((1-(2,3-difluoro-4-(1H-pyrazol-4-yl)phenyl)piperidin-4-yl)methyl)piperidin-2-one], for which the IC50 amounted to 124 nM.

Staying with this data set, now noted: 500 nM.
For the molecule `O=C1CCCN1CC1CCN(c2ccc(-c3cn[nH]c3)cc2)CC1` [Compound 1, 1-((1-(4-(1H-pyrazol-4-yl)phenyl)piperidin-4-yl)methyl)pyrrolidin-2-one], the “RLM (% inh @ 500 nM)” value is 54.99%.

With `O=C1CCCCN1CC1CCN(c2ccc(-c3cn[nH]c3)c(F)c2F)CC1` [Compound 26, 1-((1-(2,3-difluoro-4-(1H-pyrazol-4-yl)phenyl)piperidin-4-yl)methyl)piperidin-2-one], the “RLM (% inh @ 500 nM)” value was 63.62%.

Another data set concerns CYP enzymes in human liver microsomes (HLM). In words: Inhibition of 20-HETE production in human liver microsomes (HLM). Type of data set: biochemical. The conditions noted are these: 500 nM. The method, boiled down:
(§5)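 LC-MS/MS read-out of 20-HETE formation, expressed as activity relative to no-inhibitor control and fitted to a Hill equation for IC50; percent inhibition also given at 1000, 500 or 100 nM. Enzyme sources: recombinant CYP4F2, recombinant CYP4A11, or human or mouse liver microsomes. Each is combined with compound and substrate (400 μM solution) and warmed 10 min at 37 °C, then incubated 25 min at 37 °C after adding NADPH (6 mM solution).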
(In general: Microsomes from liver hold many membrane-bound enzymes, among them those of drug oxidation.)
With `O=C1CCCN1CC1CCN(c2ccc(-c3cn[nH]c3)cc2)CC1` [Compound 1, 1-((1-(4-(1H-pyrazol-4-yl)phenyl)piperidin-4-yl)methyl)pyrrolidin-2-one], the “HLM (% inh @ 500 nM)” value turned out to be 79.83%.

As for `O=C1CCCCN1CC1CCN(c2ccc(-c3cn[nH]c3)c(F)c2F)CC1` [Compound 26, 1-((1-(2,3-difluoro-4-(1H-pyrazol-4-yl)phenyl)piperidin-4-yl)methyl)piperidin-2-one], the “HLM (% inh @ 500 nM)” value was 89.67%.

Test system in the next data set: not listed separately
In words: Pharmacokinetic (PK) experiment, oral administration in rats. It counts as in vivo, Male SD rats. The conditions noted are these: 20 mg/kg. The method, boiled down: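 Fasted male SD rats (180-250 g) received 20 mg/kg orally in 30% sulfobutylether-β-cyclodextrin. Tail-vein blood sampled 15 min to 24 h post-dose into K2-EDTA; plasma protein-precipitated with acetonitrile containing internal standard and analysed by LC-MS/MS.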
For the molecule `O=C1CCCN1CC1CCN(c2ccc(-c3cn[nH]c3)cc2)CC1` [Compound 1, 1-((1-(4-(1H-pyrazol-4-yl)phenyl)piperidin-4-yl)methyl)pyrrolidin-2-one], the “absorption and blood exposure after oral administration (in words)” value is “well absorbed and exhibit high blood exposure”.

Regarding `O=C1CCCCN1CC1CCN(c2ccc(-c3cn[nH]c3)c(F)c2F)CC1` [Compound 26, 1-((1-(2,3-difluoro-4-(1H-pyrazol-4-yl)phenyl)piperidin-4-yl)methyl)piperidin-2-one], the “absorption and blood exposure after oral administration (in words)” value was “well absorbed and exhibit high blood exposure”.

The data set is the same for the next values; noted with them: male, SD, rat, plasma, 20 mg/kg.
As a reminder, the AUC(0-inf) is the area under the concentration-time curve extrapolated to infinity. One may read the Cmax as the highest concentration seen after dosing. What is called Tmax is the time at which the peak concentration occurs. Broadly, the half-life is the time needed for the level to fall by half in the phase considered. Turning to `O=C1CCCN1CC1CCN(c2ccc(-c3cn[nH]c3)cc2)CC1` [Compound 1, 1-((1-(4-(1H-pyrazol-4-yl)phenyl)piperidin-4-yl)methyl)pyrrolidin-2-one], the AUC(0-inf) is 125000 ng·h/mL, the peak level (Cmax) was 9980 ng/mL, the Tmax was 1.5 h and the half-life was 7.23 h.

Regarding `O=C1CCCCN1CC1CCN(c2ccc(-c3cn[nH]c3)c(F)c2F)CC1` [Compound 26, 1-((1-(2,3-difluoro-4-(1H-pyrazol-4-yl)phenyl)piperidin-4-yl)methyl)piperidin-2-one], the AUC(0-inf) turned out to be 40500 ng·h/mL, the concentration peaked (Cmax) at 7150 ng/mL, the Tmax was 1.67 h and the half-life is 2.93 h.

Still in this data set, the particulars now being: male, SD, rat, plasma, 20 mg/kg, read-out: AUC0-24.
Consider `O=C1CCCN1CC1CCN(c2ccc(-c3cn[nH]c3)cc2)CC1` [Compound 1, 1-((1-(4-(1H-pyrazol-4-yl)phenyl)piperidin-4-yl)methyl)pyrrolidin-2-one], for which the AUC(0-t) turned out to be 113000 ng·h/mL.

For the molecule `O=C1CCCCN1CC1CCN(c2ccc(-c3cn[nH]c3)c(F)c2F)CC1` [Compound 26, 1-((1-(2,3-difluoro-4-(1H-pyrazol-4-yl)phenyl)piperidin-4-yl)methyl)piperidin-2-one], the AUC(0-t) is 40300 ng·h/mL.

The target of the next data set is recombinant CYP4F2 (rCYP4F2) (Homo sapiens (Human), UniProt P78329). In words: Inhibition of 20-HETE production by recombinant CYP4F2. It counts as biochemical.
Chain of recombinant CYP4F2 (rCYP4F2) (P78329 5-520): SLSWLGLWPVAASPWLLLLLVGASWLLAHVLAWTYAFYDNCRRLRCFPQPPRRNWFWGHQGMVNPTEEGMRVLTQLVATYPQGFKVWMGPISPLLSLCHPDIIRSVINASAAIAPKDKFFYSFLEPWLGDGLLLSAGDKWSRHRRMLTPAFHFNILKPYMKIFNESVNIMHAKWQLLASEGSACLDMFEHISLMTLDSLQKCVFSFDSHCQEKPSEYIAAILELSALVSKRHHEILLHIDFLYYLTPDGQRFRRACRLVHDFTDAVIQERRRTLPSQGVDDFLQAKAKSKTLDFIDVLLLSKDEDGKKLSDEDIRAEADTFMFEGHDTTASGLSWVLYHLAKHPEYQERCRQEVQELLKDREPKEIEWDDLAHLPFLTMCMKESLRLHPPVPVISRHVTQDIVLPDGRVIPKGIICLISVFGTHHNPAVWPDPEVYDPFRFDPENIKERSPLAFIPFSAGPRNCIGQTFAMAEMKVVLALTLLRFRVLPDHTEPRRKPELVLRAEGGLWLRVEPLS
Conditions: not given
As to the method: as §1, §2, §3, §4
With `O=C1CCCN1CC1CCN(c2ccc(-c3cn[nH]c3)cc2)CC1` [Compound 1, 1-((1-(4-(1H-pyrazol-4-yl)phenyl)piperidin-4-yl)methyl)pyrrolidin-2-one], the IC50 came out at 24 nM.

The same data set, now with this note: read-out: rCYP4F2 (% inh @ 100 nM).
For the molecule `O=C1CCCN1CC1CCN(c2ccc(-c3cn[nH]c3)cc2)CC1` [Compound 1, 1-((1-(4-(1H-pyrazol-4-yl)phenyl)piperidin-4-yl)methyl)pyrrolidin-2-one], the inhibition at 0.1 µM amounted to 59.5%.

As for `O=C1CCCCN1CC1CCN(c2ccc(-c3cn[nH]c3)c(F)c2F)CC1` [Compound 26, 1-((1-(2,3-difluoro-4-(1H-pyrazol-4-yl)phenyl)piperidin-4-yl)methyl)piperidin-2-one], the inhibition at 0.1 µM was found to be 78%.

Another data set has as its system diet-induced obesity (DIO) mouse model. In words: Experiment 1: compound 1, weight loss and blood glucose lowering in DIO mouse model. It counts as in vivo, Male C57BL/6J mice. The conditions noted are these: 100 mg/kg orally once daily for 32 days from first day of HFD. As to the method: Experiment 1 was to investigate the effects of compound 1 on weight loss and blood glucose lowering in a diet-induced obesity (DIO) mouse model. Male C57BL/6J mice were purchased from Zhuhai BST Biotechnology Co., Ltd. and housed in a barrier system animal facility. The animals were randomly divided into 3 groups: normal control group, DIO model control group, and DIO model compound 1 treatment group, with 6 animals per group. The treatment group received compound 1 orally at a dose of 100 mg/kg on the first day of high-fat diet (HFD) feeding, once daily for 32 consecutive days. Animal weights were measured weekly, and on day 33, they were fasted overnight but allowed access to water before an oral glucose tolerance test (OGTT).
On to `O=C1CCCN1CC1CCN(c2ccc(-c3cn[nH]c3)cc2)CC1` [Compound 1, 1-((1-(4-(1H-pyrazol-4-yl)phenyl)piperidin-4-yl)methyl)pyrrolidin-2-one], for which the body weight result was “stabilized around the initial weight after 1 week and remained stable thereafter”.

The data set is the same for the next values; noted with them: 100 mg/kg orally once daily for 32 days, DIO mice.
As to `O=C1CCCN1CC1CCN(c2ccc(-c3cn[nH]c3)cc2)CC1` [Compound 1, 1-((1-(4-(1H-pyrazol-4-yl)phenyl)piperidin-4-yl)methyl)pyrrolidin-2-one], the fasting blood glucose result is given as “inhibit the increase in fasting blood glucose”.

Staying with this data set, now noted: 100 mg/kg orally once daily for 32 days, OGTT day 33.
In the case of `O=C1CCCN1CC1CCN(c2ccc(-c3cn[nH]c3)cc2)CC1` [Compound 1, 1-((1-(4-(1H-pyrazol-4-yl)phenyl)piperidin-4-yl)methyl)pyrrolidin-2-one], the “glucose metabolism (OGTT)” value is on record as “enhance glucose metabolism”.

Another data set concerns CYP enzymes in mouse liver microsomes (MLM). In words: Inhibition of 20-HETE production in mouse liver microsomes (MLM). Type of data set: biochemical.
Conditions: not given
In a few lines:
as §5
As for `O=C1CCCN1CC1CCN(c2ccc(-c3cn[nH]c3)cc2)CC1` [Compound 1, 1-((1-(4-(1H-pyrazol-4-yl)phenyl)piperidin-4-yl)methyl)pyrrolidin-2-one], the IC50 came to 1220 nM.

As for `O=C1CCCCN1CC1CCN(c2ccc(-c3cn[nH]c3)c(F)c2F)CC1` [Compound 26, 1-((1-(2,3-difluoro-4-(1H-pyrazol-4-yl)phenyl)piperidin-4-yl)methyl)piperidin-2-one], the half-inhibitory concentration (IC50) is 1670 nM.
